In brackets after ≈: the same amount, converted by molar mass. Like-named read-outs stand apart in the source and are kept apart here.
Key:
[1] = test system: biosynthesis of glucosinolates; assay: In vivo effect of cytochrome P450 inhibitors on glucosinolate in etiolated tropaeolum seedlings; settings: 1 mM inhibitor; for effect on glucosinolate: radioactively labelled phenylalanine, etiolated tropaeolum seedlings
[2] = target: T1, P-450TYR expressed in E. coli (Sorghum bicolor, UniProt Q43135); assay: Substrate binding spectra of P-450TYR expressed in E. coli
T1 construct: in which the 35 N-terminal amino acids are replaced by the nine N-terminal amino acids from bovine 17α hydroxylase; nine N-terminal amino acids from bovine 17alpha-hydroxylase (replace the 35 N-terminal residues) (N); made in house; host or cells: E. coli JM109, vector pSP19g10L
Text: (§1) Cytochrome P-450TYR in the oxidized state has a strong absorption peak at 420 nm, representing the low spin state of the iron of the heme group. The binding of a ligand to the heme group shifts the absorption maximum by changing the spin state of the iron. Binding of tyrosine at the catalytic site of cytochrome P-450TYR induces a change of the spin state of the oxidized iron from low to high spin, and thereby changes the absorption maximum from 420 nm to 390 nm producing a type I spectrum (Jefcoate, Methods in Enzymology 52:258-279, 1978). The following experimental procedure is used to obtain the substrate binding spectrum: two identical cuvettes containing a buffered solution of the isolated cytochrome P-450 are prepared. The substrate of the enzyme is added to the sample cuvette whereas the same volume of buffer is added to the other cuvette. The difference spectrum is then recorded in an SLM-Aminco DW2c spectrophotometer. The absorption difference, A390-420, is proportional to the concentration of cytochrome P-450TYR with a bound substrate at its active site. If a saturating concentration of substrate is added to the sample cuvette, the absorption difference is proportional to the concentration of the substrate specific cytochrome P-450 in the cuvettes. The saturating concentration of the substrate is determined by titrating the cytochrome P-450 sample with increasing amounts of substrate and monitoring A390-420.
A modified cytocrome P-450TYR, in which the 35 N-terminal amino acids are replaced by the nine N-terminal amino acids from bovine 17α hydroxylase is introduced into the expression vector pSP19g10L which can be obtained from Dr. Henry Barnes (La Jolla, Calif.). This plasmid contains the lac Z promoter fused with the known short leader sequence (g10L) of gene 10 from bacteriophage T7 (Olin et al, 1988). A construct containing the N-terminal amino acids from bovine 17α hydroxylase and a truncated form of the P-450TYR gene is designed using PCR mutagenesis: Oligonucleotide TYROL 1d (5'-CGGGATCCATATGGCTCTGTTATTAGCAGTTTTTCTGTCGTACCTGGCCCG-3'; SEQ ID NO 23) containing a 5' mutant cDNA sequence as well as a BamHI and NdeI restriction site is used together with oligonucleotide TYROL 3 comprising the sequence surrounding the unique BamHI restriction site downstream of the ATG start codon of the cDNA coding for P-450TYR to amplify a modified N-terminal sequence of P-450TYR. The amplification product is cut with NdeI and BamHI restriction enzymes. To introduce a HindIII site immediately downstream of the stop codon of the P-450TYR gene, oligonucleotides TYROL 2 and TYROL 4 are used in a polymerase chain reaction to obtain a C-terminal fragment of the P-450TYR gene comprising a HindIII restriction site immediately downstream of the stop codon. The amplification product is cut with PstI and HindIII restriction enzymes. The complete expression plasmid is constructed by simultaneous ligation of the N-terminal NdeI/BamHI fragment, the BamHI/PstI fragment of the P-450TYR gene and the C-terminal PstI/HindIII fragment into NdeI/HindIII cleaved pSP19g10L vector DNA. The expression vector obtained is transformed into E. coli strain JM109. Transformed E. coli produce 300 nmol to 500 nmol cytochrome P-450TYR per liter cell culture upon growth at 28° C. in the presence of 1 mM isopropyl-β-D-thiogalactopyranoside and at 125 rpm. Expression levels as high as 900 nmol per liter, equivalent to 55 mg P-450TYR per liter, have been obtained. […]

cytochrome P-450TYR = target: T2, cytochrome P-450TYR (Sorghum bicolor, UniProt Q43135); assay: Substrate binding spectra of isolated sorghum cytochrome P-450TYR (difference spectrum A390-420)
T2 construct: from tissue; host or cells: microsomes of etiolated Sorghum bicolor seedlings, solubilised and purified by dye columns
T2 sequence (Q43135 1-558): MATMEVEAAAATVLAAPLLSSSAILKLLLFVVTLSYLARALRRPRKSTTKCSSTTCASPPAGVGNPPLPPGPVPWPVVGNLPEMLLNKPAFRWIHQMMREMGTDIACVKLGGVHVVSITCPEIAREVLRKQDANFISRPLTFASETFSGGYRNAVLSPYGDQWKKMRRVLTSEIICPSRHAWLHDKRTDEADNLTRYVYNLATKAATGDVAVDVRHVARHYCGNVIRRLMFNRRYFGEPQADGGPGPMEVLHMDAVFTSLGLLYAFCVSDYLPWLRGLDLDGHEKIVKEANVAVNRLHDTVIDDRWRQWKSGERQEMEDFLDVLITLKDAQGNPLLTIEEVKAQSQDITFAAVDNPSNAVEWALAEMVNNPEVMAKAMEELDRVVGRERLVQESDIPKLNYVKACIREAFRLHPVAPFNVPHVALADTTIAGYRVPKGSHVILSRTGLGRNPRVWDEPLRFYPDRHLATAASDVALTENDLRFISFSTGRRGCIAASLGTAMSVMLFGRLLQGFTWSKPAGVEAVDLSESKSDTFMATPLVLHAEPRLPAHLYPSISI
Protocol: Cytochrome P-450 substrate binding spectra are recorded with stepwise increased substrate concentration until saturating conditions are reached.
as §1, with “Binding of tyrosine at the catalytic site of cytochrome P-450TYR induces a change of the spin state of the oxidized iron from low to high spin, and thereby changes the absorption maximum from 420 nm to 390 nm producing a type I spectrum (Jefcoate, Methods in Enzymology 52:258-279, 1978).” left out
If a cytochrome P-450 sample can be saturated with two different substrates, there may be two different cytochrome P-450 enzymes in the sample, or there may be one cytochrome P-450 enzyme able to bind to both substrates. To discriminate between these possibilities, saturating amounts of the two substrates are added sequentially and the A390-420absorption change is monitored. If, independent of the order of addition, the addition of the second sample gives rise to an increased A390-420value compared to the value after the addition of the first substrate, the two substrates are bound by different enzymes. If A390-420 remains unchanged upon addition of the second substrate, independent of the order of addition, both substrates bind to the same active site, i.e. to the same cytochrome P-450 enzyme.

glucosinolate production = assay: Induction of glucosinolate production in Tropaeolum majus; assay type: in vivo
Protocol: Seeds of Tropaeolum majus L. cv Empress of India (Dansk Havefroforsyning, Kolding, DK) are allowed to imbibe and germinate in complete darkness for one week at 25° C. In vivo biosynthesis experiments are performed wherein 1 μCi of the tracer ^14 C-labelled phenylalanine is administered to excised dark-grown seedlings for 24 hours followed by boiling of the plant material in 90% methanol and analysis of the extracts by HPLC as described by Lykkesfeldt and Moller, 1993. Prior to administration of the tracer to the excised seedling or leaf, the intact plant is subjected to a potential inducer for 24 hours.

[3] = test system: Western Corn Root Worm (WCRW); assay: Larval mortality of Western Corn Root Worm on diet; assay type: in vivo, Diabrotica virgifera virgifera
Text: Insects or insect larvae are fed on a diet containing added cyanogenic glycoside, a diet containing added cyanogenic glycoside, and callus, or a diet supplemented with the supernatant of callus ground-up in the presence of the cyanogenic glycoside. Mortality is compared to the mortality of insects or insect larvae fed on the diet only.
WCRW larvae are fed on a diet with added amygdalin, a diet with added amygdalin and Black Mexican Sweet (BMS) callus or on a diet supplemented with the supernatant of BMS-callus ground-up in the presence of amygdalin. Larval mortality is compared to the mortality of larvae fed on the diet only.
The activity of dhurrin on larval mortality of WCRW was determined as described for amygdalin in example 12.

T1 sequence (Q43135 other isoform, or with tags, fused parts or gaps): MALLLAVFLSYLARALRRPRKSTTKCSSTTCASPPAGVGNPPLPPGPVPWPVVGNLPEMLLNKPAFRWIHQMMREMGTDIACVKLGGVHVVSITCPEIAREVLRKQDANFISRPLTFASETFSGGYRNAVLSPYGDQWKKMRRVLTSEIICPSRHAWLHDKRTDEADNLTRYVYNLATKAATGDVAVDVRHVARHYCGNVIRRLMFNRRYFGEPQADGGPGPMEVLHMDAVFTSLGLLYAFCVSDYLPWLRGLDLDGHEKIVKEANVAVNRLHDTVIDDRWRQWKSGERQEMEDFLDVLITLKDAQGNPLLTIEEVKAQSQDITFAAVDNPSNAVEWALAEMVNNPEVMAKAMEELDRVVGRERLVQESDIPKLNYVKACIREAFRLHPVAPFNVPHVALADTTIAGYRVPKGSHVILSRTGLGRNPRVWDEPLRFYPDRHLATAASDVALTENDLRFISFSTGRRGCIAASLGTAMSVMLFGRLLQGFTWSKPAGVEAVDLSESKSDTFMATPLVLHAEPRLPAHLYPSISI

Compound: Clc1ccc(N2N=NC3C4CC(C5N=NC45)C32)cc1 (stereo not drawn) [tetcyclacis]
- effect on glucosinolate [1]: reduction of glucosinolate

Compound: N#CCc1ccc(O)cc1 [p-hydroxyphenylacetonitrile]
- type of substrate binding spectrum [2]: type Ispectrum

Compound: O=C(O)[C@H](Cc1ccc(O)cc1)NO [N-hydroxytyrosine]
- initial A390-420 (cytochrome P-450TYR; 50 μl 20 mM N-hydroxytyrosine): 0,0689
- resulting A390-420 (cytochrome P-450TYR; 50 μl 20 mM N-hydroxytyrosine, dilution factor 550/500): 0,0758
- initial A390-420 (cytochrome P-450TYR; 120 μl 5 mM N-hydroxytyrosine): 0,0919
- resulting A390-420 (cytochrome P-450TYR; 120 μl 5 mM N-hydroxytyrosine, dilution factor 620/500): 0,1140
- initial A390-420 (cytochrome P-450TYR; 140 μl 5 mM N-hydroxytyrosine): 0,0911
- resulting A390-420 (cytochrome P-450TYR; 140 μl 5 mM N-hydroxytyrosine, dilution factor 640/500): 0,1166
- type of substrate binding spectrum (cytochrome P-450TYR; isolated sorghum P-450TYR): type I binding spectrum
- molar extinction coefficient E420-390 [2]: 64.6 cm⁻¹ mM⁻¹

Compound: CC/C=C\C[C@H]1C(=O)CC[C@@H]1CC(=O)O [jasmonic acid]
- induction of glucosinolate production (glucosinolate production; spraying with 100 μM, incubation 24 hours, etiolated seedlings and green leaves): fivefold induction

Compound: enilketoconazol
- effect on uptake of phenylalanine ([1]; measured by ethanol extraction of the plant material): without causing a reduction in the uptake of phenylalanine
- effect on glucosinolate [1]: reduction of glucosinolate

Compound: N#C[C@H](O[C@@H]1O[C@H](CO[C@@H]2O[C@H](CO)[C@@H](O)[C@H](O)[C@H]2O)[C@@H](O)[C@H](O)[C@H]1O)c1ccccc1 [amygdalin]
- lethality ([3]; WCRW larvae, 2 mg/ml, in the absence of BMS-callus): lethal
- lethality ([3]; WCRW larvae, concentrations of less than 1 mg/ml, BMS-callus absent): significantly less lethality
- LC50 ([3]; WCRW larvae, in the presence of BMS-callus, read-out: LC50): ~1000 µg/mL

Compound: CCO [ethanol]
- increase in glucosinolate production as compared to control experiments with water (glucosinolate production; 10 mM phenylalanine or 2% ethanol administered to the vermiculate, 24 hours, etiolated seedlings): threefold increase

Compound: ON=CCc1ccc(O)cc1 [p-hydroxyphenylacetaldehyde oxime]
- type of substrate binding spectrum [2]: type Ispectrum

Compound: N#C[C@@H](O[C@@H]1O[C@H](CO)[C@@H](O)[C@H](O)[C@H]1O)c1ccc(O)cc1 [dhurrin]
- LC50 [3]: 368 µg/mL (≈ 1180 µM)
- 95% confidence limits of LC50 ([3]; WCRW larvae): 0.28 to 0.48 µg/mL
- slope of the regression line ([3]; WCRW larvae): 2.5

Reference: patent US5882851A, “Cytochrome P-450 monooxygenases” (Novartis Finance Corporation, priority 1993, dated 1999)
